According to doi:10.1101/2023.05.15.540887, “Comparative analysis of drug-like EP300/CREBBP acetyltransferase inhibitors” (bioRxiv, 2023):
Like-named read-outs stand apart in the source and are kept apart here.

Columns and labels:
OVCAR-3 = test: NCI-60 growth inhibition (sulforhodamine B)
NCI-H322M = test: NCI-60 growth inhibition (sulforhodamine B); format: cell-based, human; conditions: NCI-H322M (Non-Small Cell Lung Cancer), negative log of Molar conc., LCONC -8
T-47D = test: NCI-60 growth inhibition (sulforhodamine B); format: cell-based; conditions: Homo sapiens, T47D
HOP-92 = test: NCI-60 growth inhibition (sulforhodamine B); format: cell-based, human; conditions: HOP-92 (Non-Small Cell Lung Cancer), negative log of Molar conc., LCONC -8
NCI/ADR-RES = test: NCI-60 growth inhibition (sulforhodamine B); format: cell-based; conditions: Homo sapiens, LCONC -8
SNB-75 = test: NCI-60 growth inhibition (sulforhodamine B); format: cell-based, human; conditions: SNB-75 (CNS Cancer), negative log of Molar conc., LCONC -8
LOXIMVI = test: NCI-60 growth inhibition (sulforhodamine B); format: cell-based, human; conditions: LOX IMVI (Melanoma), negative log of Molar conc., LCONC -8
ACHN = test: NCI-60 growth inhibition (sulforhodamine B); format: cell-based; conditions: Homo sapiens, Renal Cancer, negative log of Molar value
A498 = test: NCI-60 growth inhibition (sulforhodamine B); format: cell-based; conditions: Homo sapiens, A498, Renal Cancer, negative log of Molar value, LCONC -8, EXPID 2301NS84
NCI-H23 = test: NCI-60 growth inhibition (sulforhodamine B); format: cell-based, human; conditions: NCI-H23 (Non-Small Cell Lung Cancer), negative log of Molar conc., LCONC -8
M14 = M14 (Melanoma); negative log of Molar conc.; LCONC -8
MDA-MB-468 = test: NCI-60 growth inhibition (sulforhodamine B); conditions: Homo sapiens
UACC-257 = test: NCI-60 growth inhibition (sulforhodamine B); format: cell-based, human; conditions: UACC-257 (Melanoma), negative log of Molar conc., LCONC -8
RXF393 = test: NCI-60 growth inhibition (sulforhodamine B); format: cell-based; conditions: Homo sapiens, RXF 393, Renal Cancer, negative log of Molar value, LCONC -8, EXPID 2301NS84
PC-3 = test: NCI-60 growth inhibition (sulforhodamine B); format: cell-based; conditions: Homo sapiens, PC-3, Prostate Cancer, negative log of Molar value, LCONC -8, EXPID 2301NS84
NCI-H460 = test: NCI-60 growth inhibition (sulforhodamine B); format: cell-based, human
SK-MEL-5 = test: NCI-60 growth inhibition (sulforhodamine B); format: cell-based, human; conditions: SK-MEL-5 (Melanoma), negative log of Molar conc., LCONC -8
HCT-116 = test: NCI-60 growth inhibition (sulforhodamine B); format: cell-based, human; conditions: HCT-116 (Colon Cancer), negative log of Molar conc., LCONC -8
SF-295 = test: NCI-60 growth inhibition (sulforhodamine B); format: cell-based, human; conditions: SF-295 (CNS Cancer), negative log of Molar conc., LCONC -8
A549/ATCC = test: NCI-60 growth inhibition (sulforhodamine B); format: cell-based, human; conditions: A549/ATCC (Non-Small Cell Lung Cancer), negative log of Molar conc., LCONC -8
[1] = Homo sapiens, read-out: GI50 NLOGVALUE (converted)
[2] = Homo sapiens, read-out: IC50 NLOGVALUE
[3] = Homo sapiens, read-out: LC50 NLOGVALUE
[4] = Homo sapiens, read-out: GI50 NLOGVALUE
[5] = Homo sapiens, read-out: IC50 NLOGVALUE (converted)
[6] = read-out: GI50 NLOGVALUE (converted)

## C[C@H](CN[C@@H](C(=O)Nc1ccc(-c2cnn(C)c2)cn1)c1ccccc1)c1ccc(C#N)cc1 [CPI-1612]
OVCAR-3; Homo sapiens, OVCAR-3, read-out: GI50 NLOGVALUE
  GI50: 0.186 µM
OVCAR-3; Homo sapiens, OVCAR-3, read-out: IC50 NLOGVALUE
  IC50: 24 µM
OVCAR-3; Homo sapiens, OVCAR-3, read-out: LC50 NLOGVALUE
  CC50: > 100 µM
OVCAR-3; OVCAR-3 (Ovarian Cancer), negative log of Molar conc., LCONC -8
  TGI NLOGVALUE: 4
NCI-H322M; [1]
  GI50: 0.288 µM
NCI-H322M; [2]
  IC50: > 100 µM
NCI-H322M
  TGI NLOGVALUE: 4
T-47D; T-47D, Breast Cancer, negative log of Molar value, LCONC -8, EXPID 2301NS84, read-out: GI50 NLOGVALUE (converted)
  GI50: 0.0115 µM
T-47D; T-47D, Breast Cancer, negative log of Molar value, LCONC -8, EXPID 2301NS84, read-out: IC50 NLOGVALUE (converted)
  IC50: 42.7 µM
T-47D; T-47D, Breast Cancer, negative log of Molar value, LCONC -8, EXPID 2301NS84, read-out: LC50 NLOGVALUE
  CC50: > 100 µM
T-47D; read-out: GI50 AVGDATA (converted)
  GI50: 0.0117 µM
HOP-92
  TGI NLOGVALUE: 4
HOP-92; [1]
  GI50: 1.62 µM
HOP-92; [2]
  IC50: > 100 µM
HOP-92; [3]
  CC50: > 100 µM
NCI/ADR-RES; NCI/ADR-RES (Ovarian Cancer), negative log of Molar conc., read-out: GI50 NLOGVALUE (converted)
  GI50: 6.46 µM
NCI/ADR-RES; NCI/ADR-RES, Ovarian Cancer, negative log of Molar value, EXPID 2301NS84, read-out: IC50 NLOGVALUE (converted)
  IC50: 29.5 µM
NCI/ADR-RES; NCI/ADR-RES, Ovarian Cancer, negative log of Molar value, EXPID 2301NS84, read-out: LC50 NLOGVALUE
  CC50: > 100 µM
SNB-75; [4]
  GI50: > 100 µM
SNB-75; [2]
  IC50: > 100 µM
SNB-75; [3]
  CC50: > 100 µM
SNB-75
  TGI NLOGVALUE: 4
LOXIMVI; [1]
  GI50: 0.0447 µM
LOXIMVI; [5]
  IC50: 0.129 µM
LOXIMVI; [3]
  CC50: > 100 µM
LOXIMVI
  TGI NLOGVALUE: 4
ACHN; LCONC -8, EXPID 2301NS84, read-out: GI50 NLOGVALUE (converted)
  GI50: 0.0129 µM
ACHN; LCONC -8, EXPID 2301NS84, read-out: IC50 NLOGVALUE (converted)
  IC50: 0.0309 µM
A498; [6]
  GI50: 0.0295 µM
A498; read-out: IC50 NLOGVALUE
  IC50: > 100 µM
A498; read-out: LC50 NLOGVALUE
  CC50: > 100 µM
NCI-H23; [1]
  GI50: 0.0331 µM
NCI-H23; [5]
  IC50: 0.851 µM
NCI-H23; [3]
  CC50: > 100 µM
NCI-H23
  TGI NLOGVALUE: 4
M14
  TGI NLOGVALUE: 4
MDA-MB-468; MDA-MB-468, read-out: GI50 NLOGVALUE
  GI50: < 0.01 µM
MDA-MB-468; MDA-MB-468, read-out: IC50 NLOGVALUE
  IC50: > 100 µM
UACC-257; [2]
  IC50: > 100 µM
UACC-257; [3]
  CC50: > 100 µM
UACC-257
  TGI NLOGVALUE: 4
RXF393; [6]
  GI50: 55 µM
RXF393; read-out: IC50 NLOGVALUE
  IC50: > 100 µM
RXF393; read-out: LC50 NLOGVALUE
  CC50: > 100 µM
PC-3; read-out: GI50 NLOGVALUE
  GI50: < 0.01 µM
PC-3; read-out: IC50 NLOGVALUE (converted)
  IC50: 0.447 µM
PC-3; read-out: LC50 NLOGVALUE
  CC50: > 100 µM
NCI-H460; Homo sapiens, NCI-H460, read-out: GI50 AVGDATA (converted)
  GI50: 14.5 µM
NCI-H460; Homo sapiens, NCI-H460 (Non-Small Cell Lung Cancer), negative log of Molar conc., LCONC -8, read-out: GI50 NLOGVALUE (converted)
  GI50: 14.1 µM
NCI-H460; Homo sapiens, NCI-H460 (Non-Small Cell Lung Cancer), negative log of Molar conc., LCONC -8, read-out: IC50 NLOGVALUE (converted)
  IC50: 20.9 µM
NCI-H460; Homo sapiens, NCI-H460 (Non-Small Cell Lung Cancer), negative log of Molar conc., LCONC -8, read-out: LC50 NLOGVALUE
  CC50: > 100 µM
NCI-H460; NCI-H460 (Non-Small Cell Lung Cancer), negative log of Molar conc., LCONC -8
  TGI NLOGVALUE: 4
SK-MEL-5; [4]
  GI50: < 0.01 µM
SK-MEL-5; [5]
  IC50: 0.0263 µM
SK-MEL-5; [3]
  CC50: > 100 µM
SK-MEL-5
  TGI NLOGVALUE: 4.48
HCT-116
  TGI NLOGVALUE: 4
HCT-116; [1]
  GI50: 11.2 µM
HCT-116; [5]
  IC50: 18.6 µM
HCT-116; [3]
  CC50: > 100 µM
SF-295; [4]
  GI50: < 0.01 µM
SF-295; [5]
  IC50: 4.17 µM
SF-295; [3]
  CC50: > 100 µM
SF-295
  TGI NLOGVALUE: 4
A549/ATCC
  TGI NLOGVALUE: 4
A549/ATCC; [1]
  GI50: 3.31 µM
A549/ATCC; [5]
  IC50: 19.1 µM
